The structures appear in SMILES notation. Where a name gives a salt, the structure may show the parent alone.

Data set [1] relates to HCT116 cells. The data set can be described thus: Inhibition of proliferation of the human colon tumor line HCT116 ([14C]-thymidine incorporation). In kind it is cell-based. To be noted: Homo sapiens, HCT-116, 48 h, 48 hours at 37° C., read-out: Inhibition of HCT116 proliferation IC 50 (μm). Put shortly:
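HCT116 cells (5000/well) in DMEM with 10% fetal calf serum incubated 48 h at 37° C with [14C]-thymidine (0.1 μCi/well) and compound up to 10 μm (DMSO ≤0.5%). Incorporated radioactivity counted; IC50 is concentration cutting radioactivity by 50% versus untreated control.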
Background: Uptake of a labelled nucleoside into DNA is a usual measure of proliferation.

In data set [2] the target is T1, tubulin (Sus scrofa, UniProt P02550+P02554).
T1 construct: Tubulin is purified from pig brain according to published methods; from tissue; host or cells: pig brain
The data set can be described thus: Evaluation of the inhibition of tubulin polymerization (turbidimetry). In kind it is biochemical, pig. To be noted: tubulin 10 μm (1 mg/ml), 37° C., turbidity at 350 nm; concentration that inhibits the rate of polymerization by 50%; read-out: Inhibition of tubulin polymerization IC 50 (μm). Put shortly: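 Pig brain tubulin (>95% pure), 10 μm in MES pH 6.8/30% glycerol buffer plus 1 mM GTP and 6 mM MgCl2, with compound at 0.5–10 μm added before polymerization. Polymerization triggered by shift from 6° C to 37° C, followed by turbidity at 350 nm; IC50 is 50% inhibition of polymerization rate.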

T1 sequence (P02550 whole entry): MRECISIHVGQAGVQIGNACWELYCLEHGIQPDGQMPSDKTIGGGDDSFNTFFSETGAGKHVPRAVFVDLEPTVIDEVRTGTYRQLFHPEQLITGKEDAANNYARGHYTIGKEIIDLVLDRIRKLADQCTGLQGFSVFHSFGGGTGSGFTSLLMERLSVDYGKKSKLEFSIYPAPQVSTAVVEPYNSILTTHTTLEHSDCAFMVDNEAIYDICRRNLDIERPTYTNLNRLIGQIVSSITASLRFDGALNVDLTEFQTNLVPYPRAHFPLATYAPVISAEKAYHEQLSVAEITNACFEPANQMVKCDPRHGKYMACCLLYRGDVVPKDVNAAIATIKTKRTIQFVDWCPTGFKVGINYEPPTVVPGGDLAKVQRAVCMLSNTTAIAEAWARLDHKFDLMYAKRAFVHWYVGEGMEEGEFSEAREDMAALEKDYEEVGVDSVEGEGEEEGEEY
T1 sequence (P02554 whole entry): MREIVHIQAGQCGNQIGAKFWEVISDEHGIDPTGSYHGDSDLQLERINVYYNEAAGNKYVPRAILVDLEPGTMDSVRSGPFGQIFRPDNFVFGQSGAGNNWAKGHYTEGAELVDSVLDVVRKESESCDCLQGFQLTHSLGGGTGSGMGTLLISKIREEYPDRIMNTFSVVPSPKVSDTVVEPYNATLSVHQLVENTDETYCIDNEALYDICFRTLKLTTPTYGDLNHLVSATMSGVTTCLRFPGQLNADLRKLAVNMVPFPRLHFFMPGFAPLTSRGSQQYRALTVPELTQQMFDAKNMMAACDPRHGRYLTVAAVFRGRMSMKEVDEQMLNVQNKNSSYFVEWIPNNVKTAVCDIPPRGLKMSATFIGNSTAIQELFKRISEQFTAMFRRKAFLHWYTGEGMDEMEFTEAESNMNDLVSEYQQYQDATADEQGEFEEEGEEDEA

In general, melting point refers to the temperature, or range, at which the solid turns liquid. In turn, `Cc1cc(C(=O)N2CCN(c3cccc(C(N)=O)c3)CC2)n(-c2ccccc2)n1` [Example E23, 3-[4-(5-Methyl-2-phenyl-2H-pyrazole-3-carbonyl)piperazin-1-yl]benzamide] yielded a melting point of 186 °C. Moreover, the IC50 in data set [1] worked out at 0.01 µM. In data set [2], the IC50 is 0.32 µM.
The like results for `Cc1cc(C(=O)N2CCN(c3ccc4c(c3)OCO4)CC2)n(-c2ccccc2)n1` [Example E12, [4-(1,3-Benzodioxol-5-yl)piperazin-1-yl](5-methyl-2-phenyl-2H-pyrazol-3-yl)-methanone] were, in that order, 128 °C, 0.0031 µM and 2.3 µM.
Compound `NC(=O)c1cccc(N2CCN(C(=O)c3cc(C(F)(F)F)nn3-c3ccccc3)CC2)c1` [Example E119, 3-[4-(2-Phenyl-5-trifluoromethyl-2H-pyrazole-3-carbonyl)piperazin-1-yl]benzamide] came in with a melting point of 160 °C. Further, the IC50 in data set [1] stood at 0.0103 µM. In data set [2], the IC50 came to 1.2 µM.
`Cc1cc(C(=O)N2CCN(c3cc(F)c(F)c(F)c3)CC2)n(-c2ccccc2)n1` [Example E111, (5-Methyl-2-phenyl-2H-pyrazol-3-yl)[4-(3,4,5-trifluorophenyl)piperazin-1-yl]methanone] gave a melting point of 204 °C. Besides, the IC50 in data set [2] was 2.33 µM.
With `Cc1cc(C(=O)N2CCN(c3ccccc3[N+](=O)[O-])CC2)n(-c2ccccc2)n1` [Example E62, (5-Methyl-2-phenyl-2H-pyrazol-3-yl)[4-(2-nitrophenyl)piperazin-1-yl]methanone], the melting point came out at 127 °C. Also, the IC50 in data set [2] worked out at 13.5 µM.
`CC(=O)c1cccc(N2CCN(C(=O)c3cc(C)nn3-c3ccccc3)CC2)c1` [Example E107, 1-{3-[4-(5-Methyl-2-phenyl-2H-pyrazole-3-carbonyl)piperazin-1-yl]phenyl}ethanone] showed a melting point of 134 °C. Further, the IC50 in data set [1] was 0.0104 µM. For the same compound, the IC50 in data set [2] amounted to 1.4 µM.
`Cc1cc(C(=O)N2CCN(c3cccnc3)CC2)n(-c2cccc(F)c2)n1` [Example E58, [2-(3-Fluorophenyl)-5-methyl-2H-pyrazol-3-yl](4-pyrid-3-ylpiperazin-1-yl)methanone] gave a melting point of 132 °C. Besides, the IC50 in data set [1] is 0.0411 µM. For the same compound, the IC50 in data set [2] came out at 1 µM.
Take `O=C(c1cc(C(F)(F)F)nn1-c1ccccc1)N1CCN(c2cccc(Cl)c2)CC1` [Example E118, [4-(3-Chlorophenyl)piperazin-1-yl](2-phenyl-5-trifluoromethyl-2H-pyrazol-3-yl)-methanone]: the melting point came out at 160 °C. For the same compound, the IC50 in data set [1] was 0.403 µM. The IC50 in data set [2] amounted to 2.3 µM.
The like results for `Cc1cc(C)cc(N2CCN(C(=O)c3cc(C)nn3-c3ccccc3)CC2)c1` [Example E63, [4-(3,5-Dimethylphenyl)piperazin-1-yl](5-methyl-2-phenyl-2H-pyrazol-3-yl)methanone] were, in that order, 109 °C, 0.0022 µM and 0.6 µM.
Compound `COc1cc(OC)cc(N2CCN(C(=O)c3cc(C(C)C)nn3-c3ccccc3)CC2)c1` [Example E71, [4-(3,5-Dimethoxyphenyl)piperazin-1-yl](5-isopropyl-2-phenyl-2H-pyrazol-3-yl)methanone] yielded a melting point of 116 °C. For the same compound, the IC50 in data set [1] turned out to be 0.2 µM. In data set [2], the IC50 is 3.74 µM.
The like results for `Cc1cc(C(=O)N2CCN(c3cnccn3)CC2)n(-c2ccccc2)n1` [Example E19, (5-Methyl-2-phenyl-2H-pyrazol-3-yl)(2,3,5,6-tetrahydro-[1,2′]bipyrazinyl-4-yl)-methanone] were, in that order, 129 °C, 0.04 µM and 6 µM.
As for `COc1cc(OC)cc(N2CCN(C(=O)c3cc(C(F)(F)F)nn3-c3ccccc3)CC2)c1` [Example E117, [4-(3,5-Dimethoxyphenyl)piperazin-1-yl](2-phenyl-5-trifluoromethyl-2H-pyrazol-3-yl)methanone], the melting point came to 84 °C. The IC50 in data set [1] is 0.0284 µM. The IC50 in data set [2] is 7.9 µM.
The like results for `O=C(c1cccn1-c1ccccc1)N1CCN(c2cccc(Cl)c2)CC1` [Example 6, [4-(3-Chlorophenyl)piperazin-1-yl](1-phenyl-1H-pyrrol-2-yl)methanone] were, in that order, 105 °C, 0.0382 µM and 1.2 µM.
`Cc1cc(C(=O)N2CCN(c3nccc4ccccc34)CC2)n(-c2ccccc2)n1.Cl` [Example E15, [4-(Isoquinolin-1-yl)piperazin-1-yl](5-methyl-2-phenyl-2H-pyrazol-3-yl)-methanone hydrochloride] had a melting point of 128 °C. Also, in data set [1], the IC50 was determined as 0.239 µM. The IC50 in data set [2] was determined as 14 µM.
Take `Cc1cc(C(=O)N2CCN(c3cccc(N)c3)CC2)n(-c2ccccc2)n1` [Example E9, [4-(3-Aminophenyl)piperazin-1-yl](5-methyl-2-phenyl-2H-pyrazol-3-yl)methanone]: the melting point came out at 158 °C. The IC50 in data set [1] came to 0.0531 µM. In data set [2], the IC50 was 3 µM.
`Cc1cc(C(=O)N2CCN(c3cccc(OC(F)(F)F)c3)CC2)n(-c2ccccc2)n1` [Example E11, [4-(3-Trifluoromethyloxyphenyl)piperazin-1-yl](5-methyl-2-phenyl-2H-pyrazol-3-yl)methanone]: the melting point was found to be 107 °C. In data set [1], the IC50 is 0.012 µM. In addition, in data set [2], the IC50 turned out to be 1 µM.
Consider `Cc1cc(C(=O)N2CCN(c3cccc(C#N)c3)CC2)n(-c2ccccc2)n1` [Example E10, [4-(3-Cyanophenyl)piperazin-1-yl](5-methyl-2-phenyl-2H-pyrazol-3-yl)-methanone], for which the melting point came out at 136 °C. For the same compound, in data set [1], the IC50 was determined as 0.0049 µM. In addition, the IC50 in data set [2] was 0.9 µM.
In turn, `Cc1cc(C(=O)N2CCN(c3cccc(C(=O)OC(C)(C)C)c3)CC2)n(-c2ccccc2)n1` [Example E27, tert-butyl 3-[4-(5-methyl-2-phenyl-2H-pyrazole-3-carbonyl)piperazin-1-yl]benzoate] displayed a melting point of 144 °C. Also, the IC50 in data set [2] worked out at 22.5 µM.
Take `Cc1cc(C(=O)N2CCN(c3cccc(Cl)c3)CC2)n(-c2cccnc2)n1` [Example E52, [4-(3-Chlorophenyl)piperazin-1-yl][5-methyl-2-(pyrid-3-yl)-2H-pyrazol-3-yl]methanone]: the melting point amounted to 124 °C. Further, the IC50 in data set [1] was 0.0102 µM. In addition, the IC50 in data set [2] came to 1.41 µM.
The compound `CNC(=O)c1cccc(N2CCN(C(=O)c3cc(C)nn3-c3ccccc3)CC2)c1` [Example E116, N-Methyl-3-[4-(5-methyl-2-phenyl-2H-pyrazole-3-carbonyl)piperazin-1-yl]-benzamide] returned a melting point of 180 °C. The IC50 in data set [1] amounted to 0.0113 µM. In data set [2], the IC50 is 2.07 µM.
The compound `NC(=O)c1cccc(N2CCN(C(=O)c3cc(CO)nn3-c3ccccc3)CC2)c1` [Example E134, 3-[4-(5-Hydroxymethyl-2-phenyl-2H-pyrazole-3-carbonyl)piperazin-1-yl]benzamide] registered a melting point of 216 °C. Also, the IC50 in data set [2] was found to be 3.2 µM.
Consider `COc1cc(OC)cc(N2CCN(C(=O)c3cc(C)nn3-c3cccnc3)CC2)c1` [Example E53, [4-(3,5-Dimethoxyphenyl)piperazin-1-yl][5-methyl-2-(pyrid-3-yl)-2H-pyrazol-3-yl]methanone], for which the melting point came to 60 °C. Besides, the IC50 in data set [1] is 0.0111 µM. Besides, the IC50 in data set [2] was 0.62 µM.
The compound `Cc1cc(C(=O)N2CC=C(c3ccccc3)CC2)n(-c2ccccc2)n1` [Example 4, (4-Phenyl-1,2,3,6-tetrahydropyridin-1-yl)(5-methyl-2-phenyl-2H-pyrazol-3-yl)-methanone] gave a melting point of 68 °C. In data set [1], the IC50 was 0.0588 µM. For the same compound, in data set [2], the IC50 turned out to be 3 µM.
`O=C(c1cccn1-c1ccccc1)N1CCN(c2cccnc2)CC1` (as salt: hydrochloride) [Example E46, (1-Phenyl-1H-pyrrol-2-yl)[4-(pyrid-3-yl)piperazin-1-yl]methanone hydrochloride]: the melting point was 180 °C.
Compound `Cc1cc(C(=O)N2CCN(c3cncc4ccccc34)CC2)n(-c2ccccc2)n1` [Example E41] registered a melting point of 166 °C. Moreover, the IC50 in data set [1] stood at 0.0894 µM. In addition, in data set [2], the IC50 worked out at 4.5 µM.
Compound `Cc1cc(C(=O)N2CCN(c3cccc(Br)c3)CC2)n(-c2ccccc2)n1` [Example E6, [4-(3-Bromophenyl)piperazin-1-yl](5-methyl-2-phenyl-2H-pyrazol-3-yl)methanone] registered a melting point of 138 °C. Further, the IC50 in data set [1] came to 0.0012 µM. In addition, the IC50 in data set [2] is 0.9 µM.

Source of the values: patent US20050130989A1, “N-arylheteroaromatic products compositions containing them and use thereof” (Aventis Pharma S. A., priority 2003, published 2005).
